“Also recorded” adds a separate entry of the source.
How the values were obtained:
[1] = target: T1, SERCA2a (Mus musculus, UniProt O55143); test: NADH-coupled ATPase assay on microsomal membrane vesicles from mouse heart ventricles (mouse SR); type: biochemical; parameters: key to SERCA2a mouse SR effect class: +++: a strong effect, comparable to or greater than that of a known compounds at a given concentration (25 µM in RyR2 R-CEPIA1er assay, 10 µM in caffeine assay and on microsomal membrane vesicles); ++: moderate effect; +: observable effect; -: no effect; conditions: for SERCA2a mouse SR effect class: 10 µM on microsomal membrane vesicles
T1 construct: host or cells: HL-1 cardiac cells
T1 sequence (O55143 1-998 isoform O55143-2): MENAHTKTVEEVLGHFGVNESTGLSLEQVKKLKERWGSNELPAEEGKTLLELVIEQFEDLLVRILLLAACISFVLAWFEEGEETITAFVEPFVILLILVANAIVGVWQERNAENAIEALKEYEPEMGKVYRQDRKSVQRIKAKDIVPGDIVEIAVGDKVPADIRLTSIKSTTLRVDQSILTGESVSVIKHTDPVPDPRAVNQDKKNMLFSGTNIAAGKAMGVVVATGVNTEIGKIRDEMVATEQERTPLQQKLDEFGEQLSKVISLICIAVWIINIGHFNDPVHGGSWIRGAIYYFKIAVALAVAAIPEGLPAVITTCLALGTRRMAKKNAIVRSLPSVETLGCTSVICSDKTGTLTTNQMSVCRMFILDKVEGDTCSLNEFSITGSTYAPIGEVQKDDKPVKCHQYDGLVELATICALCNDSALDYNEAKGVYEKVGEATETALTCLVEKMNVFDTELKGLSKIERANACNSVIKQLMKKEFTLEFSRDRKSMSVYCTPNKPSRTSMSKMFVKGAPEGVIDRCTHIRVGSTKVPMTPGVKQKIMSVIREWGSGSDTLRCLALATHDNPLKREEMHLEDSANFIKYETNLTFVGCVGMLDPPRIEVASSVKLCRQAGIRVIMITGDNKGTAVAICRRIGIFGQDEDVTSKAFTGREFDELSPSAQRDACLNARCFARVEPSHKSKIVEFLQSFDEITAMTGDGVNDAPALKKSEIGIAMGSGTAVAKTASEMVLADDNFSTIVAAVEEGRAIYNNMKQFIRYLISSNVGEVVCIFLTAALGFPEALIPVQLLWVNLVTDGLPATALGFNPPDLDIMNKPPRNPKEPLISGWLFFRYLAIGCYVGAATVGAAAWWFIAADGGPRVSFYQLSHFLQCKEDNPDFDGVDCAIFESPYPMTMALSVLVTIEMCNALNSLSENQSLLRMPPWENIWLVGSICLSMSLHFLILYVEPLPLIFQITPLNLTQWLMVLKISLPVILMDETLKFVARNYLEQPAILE
Method: All animal procedures were performed in accordance with Directive 2010/63/EU of the European Parliament and the Council on the protection of animals used in research, as well as Animal Welfare Law of the Federal Republic of Germany (Tierschutzgesetz der Bundesrepublik Deutschland, TierSchG). […] All mice were housed with a 12 hours light/dark cycle with free access to food and water. Adult C57BL/6N mice of both genders were sedated with isoflurane in a sealed container and quickly euthanized by cervical dislocation. Heart ventricles were taken out instantly, washed with ice cold PBS plus complete, cut into smaller pieces and snap frozen in liquid nitrogen straight away.
Thawed on ice lysis buffer (10mM EDTA, 10mM HEPES, cOmplete, pH 7.4) was added and the ventricles were homogenized with a Qiagen cellruptor for 20 s. On ice an equal volume of restoration buffer (500 mM sucrose, 10 mM HEPES, cOmplete, pH7.2) was added and briefly mixed. The homogenate was centrifuged at 10000 × g for 20 min at 4° C. The supernatant was collected and centrifuged again for another hour (100000 × g at 4°C). Then the pellet was carefully resuspended in resuspension buffer (250 mM sucrose, 10 mM HEPES, cOmplete, pH 7.2) on ice by pipetting the solution up and down until fully dissolved. The obtained solution was diluted to a protein concentration of 5 µg/µl with the resuspension buffer and the aliquots were snap frozen in liquid nitrogen and then stored at -80 °C until usage.
(§1) To determine whether new compounds could increase the SERCA2a activity, HEK-293 microsomes (40 - 150 µg of total protein) or mouse ventricular microsomes (1 - 20 µg of total protein) were diluted in 100 µl of the assay buffer used for measurement of SERCA activity (described below) and incubated at room temperature for 5 minutes prior to the experiments. The measurements of SERCA2a activity were made at 28 °C by using a NADH -coupled ATPase assay. Briefly, the assay buffer contained 60 mM MOPS, 120 mM KCI, 6 mM MgCl2, 1 mM EGTA, 5 mM NaN3, 0.5 mM phosphoenolpyruvate and 1.5 mM CaCl2, pH 7.0. Before the reaction was started by the injection of […] ATP (resulting in 2 mM final concentration in the well), 5 units/mL of both lactate dehydrogenase and pyruvate kinase, 0.5 mM NADH, and 1 µM Ca^2+ ionophore A-23187 (Sigma, C-7522) were added to the diluted sample with or without the tested compound. The 1.5 mM Ca/EGTA buffer has a free Ca^2+ concentration of about 200 µM. The NADH fluorescence decrease was recorded each 2 s for 10 min course on a multiwell plate reader TECAN Spark 20M in 96-well glass bottom plates (MatTek Corporation; Cat. No. PBK96G-1.5-5-F). Fluorescence was evoked by 380 nm excitation wavelength and collected in a bottom-read mode at 425 nm. Exposure - 30 flashes, excitation bandwidth - 10 nm, emission bandwidth - 10 nm. ATP was injected at 30 s. […] The data were analyzed with computer software GraphPad Prism version 8.3.1 (GraphPad Software, Inc.). The difference in signal decrease with and without microsomes was taken as an indicator for the additional ATPase activity performed by SERCA2a. The obtained values for maximal SERCA2a activity were normalized for total protein concentration. Maximal SERCA2a activity values are reported as percentages of control (0.1% DMSO) values. Microsomal samples that were kept on ice until usage and set to 100%.
In an NADH assay, the change in NADH coenzyme fluorescence reflects the level of the consumption of ATP, which can be taken as an indicator of SERCA2 activity [G. B. Warren, P. A. Toon, N. J. Birdsall, A. G. Lee, J. C. Metcalfe, Reconstitution of a calcium pump using defined membrane components. Proc. Natl. Acad. Sci. U.S.A. 1974, 71, 622 - 626]. ATP hydrolysis by SERCA2 is required to pump calcium ions into the SER. A higher rate of ATP hydrolysis corresponds to enhanced SERCA2 ATPase activity that leads to a greater pumping of calcium ions into the SR. […]

[2] = target: T2, SERCA2 (Homo sapiens, UniProt P16615); test: NADH-coupled ATPase assay on microsomal membrane vesicles from HEK-293T cells (HEK-293 ER); type: biochemical; parameters: key to SERCA2a HEK ER effect class: +++: a strong effect, comparable to or greater than that of a known compounds at a given concentration (25 µM in RyR2 R-CEPIA1er assay, 10 µM in caffeine assay and on microsomal membrane vesicles); ++: moderate effect; +: observable effect; -: no effect; conditions: for SERCA2a HEK ER effect class: 10 µM on microsomal membrane vesicles; for effect on SERCA2 ATPase activity, in words: microsomes from HEK-293 ER, 10 µM (1 µM for 14b), vs. 0.1 % DMSO
T2 construct: endogenous in cells; host or cells: HEK-293T cells, microsomal membrane vesicles
T2 sequence (P16615 whole entry): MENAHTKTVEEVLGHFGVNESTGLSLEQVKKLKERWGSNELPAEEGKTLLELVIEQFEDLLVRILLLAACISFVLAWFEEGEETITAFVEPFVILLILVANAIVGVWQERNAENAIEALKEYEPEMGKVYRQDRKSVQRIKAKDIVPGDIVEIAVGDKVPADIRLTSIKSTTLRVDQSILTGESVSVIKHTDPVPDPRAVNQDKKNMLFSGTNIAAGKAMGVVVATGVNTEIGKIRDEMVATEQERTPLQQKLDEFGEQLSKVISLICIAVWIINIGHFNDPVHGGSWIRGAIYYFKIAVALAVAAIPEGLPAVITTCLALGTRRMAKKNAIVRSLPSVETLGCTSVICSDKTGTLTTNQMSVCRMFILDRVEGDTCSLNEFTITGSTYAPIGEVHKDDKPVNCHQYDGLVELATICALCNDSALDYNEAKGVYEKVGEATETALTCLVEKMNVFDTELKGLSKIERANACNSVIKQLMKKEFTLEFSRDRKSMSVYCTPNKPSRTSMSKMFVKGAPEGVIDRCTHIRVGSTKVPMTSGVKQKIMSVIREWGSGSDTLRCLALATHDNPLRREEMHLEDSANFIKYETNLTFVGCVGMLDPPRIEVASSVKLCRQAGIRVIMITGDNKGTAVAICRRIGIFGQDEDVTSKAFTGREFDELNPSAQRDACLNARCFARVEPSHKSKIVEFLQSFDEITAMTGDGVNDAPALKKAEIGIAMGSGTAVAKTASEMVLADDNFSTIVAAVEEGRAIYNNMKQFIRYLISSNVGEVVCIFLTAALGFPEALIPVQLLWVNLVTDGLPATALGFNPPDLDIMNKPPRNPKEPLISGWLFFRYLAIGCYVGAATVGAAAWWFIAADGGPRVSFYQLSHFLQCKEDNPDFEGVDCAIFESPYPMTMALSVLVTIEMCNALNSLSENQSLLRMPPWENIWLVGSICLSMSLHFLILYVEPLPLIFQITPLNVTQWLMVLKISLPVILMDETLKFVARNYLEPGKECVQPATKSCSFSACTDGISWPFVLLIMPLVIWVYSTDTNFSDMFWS
Method: Isolation of microsomal membrane vesicles from HEK-293T cells (HEK-293 ER) was performed according to Stewart et al.^61 HEK-293T cells were harvested with Trypsin/EDTA, washed twice with ice-cold PBS containing protease inhibitor cocktail (cOmplete™, Roche, Mannheim, Germany) and centrifuged 800 × g for 5 min. The pellet was resuspended in ice-cold lysis buffer (1 mM EDTA, 10 mM HEPES, cOmplete, pH 7.4) and incubated on ice for 20 minutes. After the cells were homogenized with a tight fitting Dounce homogenizer (10-20 strokes), an equal volume of restoration buffer (500 mM sucrose, 10 mM HEPES, cOmplete, pH 7.2) was added and the cells were homogenized again (10-20 strokes). The homogenate was centrifuged at 10000 × g for 20 min at 4° C. The supernatant was collected and centrifuged again for another 2 hours (100000 × g at 4° C). Then the pellet was carefully resuspended in resuspension buffer (250 mM sucrose, 10 mM HEPES, cOmplete, pH 7.2) on ice by pipetting the solution up and down until fully dissolved. The obtained solution was diluted to a protein concentration of 15-20 µg/µl with the resuspension buffer, the aliquots were snap frozen in liquid nitrogen and stored at - 80 °C until usage.
as §1
In an NADH assay, the change in NADH coenzyme fluorescence reflects the level of the consumption of ATP, which can be taken as an indicator of SERCA2 activity [G. B. Warren, P. A. Toon, N. J. Birdsall, A. G. Lee, J. C. Metcalfe, Reconstitution of a calcium pump using defined membrane components. Proc. Natl. Acad. Sci. U.S.A. 1974, 71, 622 - 626]. ATP hydrolysis by SERCA2 is required to pump calcium ions into the SER. A higher rate of ATP hydrolysis corresponds to enhanced SERCA2 ATPase activity that leads to a greater pumping of calcium ions into the SR.
The rate of NADH oxidation, which is coupled to ATP hydrolysis, was observed by measuring changes in NADH intrinsic fluorescence over time after ATP injection into microsomal membranes enriched in SER vesicles isolated from mouse heart ventricles (mouse SER) and ER vesicles from HEK-293T cells (HEK-293 ER). […]

Compound | SERCA2a mouse SR effect class [1] | SERCA2a HEK ER effect class [2] | effect on SERCA2 ATPase activity, in words [2] | effect on ATPase activity, in words ([1]; cardiac SER vesicles from mouse heart, 10 µM (3 µM for 14b), vs. 0.1 v/v% DMSO) | EC50 ([1]; ATPase activity, range after the semicolon is not explained) [µM] | EC50 ([2]; ATPase activity, range after the semicolon is not explained, read-out: SERCA2a HEK ER (EC50)) [µM]
COc1ccc2c(c1)CN(Cc1ccc(C(=O)O)cc1)CCS2 [ARM210, reference compound] | ++ | + | significant activation of SERCA2 ATPase |  |  | 
COc1ccc2c(c1)CN(CCCCNCCCCC1(O)CC1)CCS2 [Compound 13a, 1-(4-((4-(7-Methoxy-2,3-dihydrobenzo[1,4-f]-thiazepin-4(5H)-yl)butyl)amino)butyl)cyclopropan-1-ol] | + | - | did not evoke significant increase in ATPase activity; also recorded: could not detect SERCA2 activation |  |  | 
COc1ccc(OCCCNCCCCC2(O)CC2)cc1 [Compound 13b, 1-(4-((3-(4-methoxyphenoxy)propyl)amino)butyl)cyclopropan-1-ol] | + | - |  |  |  | 
COc1ccc(SCCCNCCCCC2(O)CC2)cc1 [Compound 13c, 1-(4-((3-((4-Methoxyphenyl)thio)propyl)amino)butyl)cyclopropan-1-ol] | +++ | + | significant activation of SERCA2 ATPase |  |  | 
COc1ccc2c(c1)CN(CCCCC1(O)CC1)CCS2 [Compound 13d, 1-(4-(7-methoxy-2,3-dihydrobenzo[1,4-f]thiazepin-4(5H)-yl)butyl)cyclopropan-1-ol] | ++ | + | significant activation of SERCA2 ATPase; also recorded: slight | moderate |  | 
COc1ccc2c(c1)CN(CCCCN(CCCCC1(O)CC1)CCCCC1(O)CC1)CCS2 [Compound 14a, 1,1'-(((4-(7-Methoxy-2,3-dihydrobenzo[1,4-f]thiazepin-4(5H)-yl)butyl)azanediyl)bis(butane-4,1-diyl))bis(cyclopropan-1-ol)] | +++ | ++ |  |  | 0.383 | 0.016
COc1ccc(SCCCN(CCCCC2(O)CC2)CCCCC2(O)CC2)cc1 [Compound 14c, 1,1'-(((3-((4-Methoxyphenyl)thio)propyl)azanediyl)bis(butane-4,1-diyl))bis(cyclopropan-1-ol)] | + | + |  |  |  | 
